Measurements as given in the supplement of paper PMC10627819.

Columns and labels:
S. aureus Newman [1] = assay: fitness (endpoint OD595 vs no drug) (fraction); higher = more growth; conditions: one replicate
How it was run: (§1)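 In 384-well plates at 37 °C, cultures began at OD595 0.01 in 30 µl, with 55 µl used for S. pneumoniae. OD595 readings every 30 min for 14 h were corrected by the first reading. Fitness divides the stationary-phase transition optical density by the robust mean of no-drug control wells. The result is capped at 1.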

S. pneumoniae D39V [2] = assay: as above
How it was run: as §1

S. aureus DSM 20231 = assay: Bliss interaction score (quartile over a dose matrix) (fitness difference); higher = more antagonism (negative = synergy)
How it was run: (§2)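 Each OD595 reading at entry into stationary phase was scaled to the robust mean of the untreated wells on its plate, with a ceiling of 1. These ratios define fitness, and single-drug fitness was inferred from combinations. The Bliss score compares observed fitness with the product-based expectation and is reported as quartiles across all replicate types, technical, biological and donor/recipient.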

S. aureus Newman [3] = assay: as above
How it was run: as §2

B. subtilis 168 = assay: as above
How it was run: as §2

S. pneumoniae D39V [4] = assay: as above
How it was run: as §2
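For Bliss interaction score (quartile over a dose matrix) in this document: first quartile when negative (synergy) and third quartile when positive (antagonism).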
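For fitness (endpoint OD595 vs no drug) in this document: OD595 on entry to stationary phase over no-drug wells; at most 1.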

C/C(=C\C(=O)OCCCCCCCCC(=O)O)C[C@@H]1OC[C@H](C[C@@H]2O[C@H]2[C@@H](C)[C@H](C)O)[C@@H](O)[C@H]1O [Pseudomonic acid] + COc1ccc(C[C@H](N)C(=O)N[C@H]2[C@@H](O)[C@H](n3cnc4c(N(C)C)ncnc43)O[C@@H]2CO)cc1 [Puromycin]
fitness
Conditions | first compound 0.03 µg/mL | first compound 0.0313 µg/mL | first compound 0.06 µg/mL | first compound 0.0625 µg/mL | first compound 0.12 µg/mL | first compound 0.125 µg/mL
S. aureus Newman [1], partner 0.39 µg/mL | – | 0.0558 | – | 0.0476 | – | 0.0585
S. aureus Newman [1], partner 0.78 µg/mL | – | 0.0593 | – | 0.043 | – | 0.0499
S. aureus Newman [1], partner 1.56 µg/mL | – | 0.054 | – | 0.0656 | – | 0.0613
S. pneumoniae D39V [2], partner 1 µg/mL | 0.901 | – | 0.774 | – | 0.556 | –
S. pneumoniae D39V [2], partner 2 µg/mL | 0.896 | – | 0.73 | – | 0.428 | –
S. pneumoniae D39V [2], partner 4 µg/mL | 0.735 | – | 0.491 | – | 0.246 | –

Conditions | Bliss interaction score
B. subtilis 168 | -0.0341
S. aureus DSM 20231 | 0.01
S. aureus Newman [3] | 0.0128
S. pneumoniae D39V [4] | -0.209

C/C(=C\C(=O)OCCCCCCCCC(=O)O)C[C@@H]1OC[C@H](C[C@@H]2O[C@H]2[C@@H](C)[C@H](C)O)[C@@H](O)[C@H]1O [Pseudomonic acid] + CN[C@@H]1[C@H](O)[C@H](NC)[C@H]2O[C@@]3(O)C(=O)C[C@@H](C)O[C@H]3O[C@@H]2[C@H]1O [Spectinomycin]
fitness
Conditions | first compound 0.03 µg/mL | first compound 0.0313 µg/mL | first compound 0.06 µg/mL | first compound 0.0625 µg/mL | first compound 0.12 µg/mL | first compound 0.125 µg/mL
S. aureus Newman [1], partner 4 µg/mL | – | 0.0277 | – | 0.0288 | – | 0.0466
S. aureus Newman [1], partner 8 µg/mL | – | 0.0165 | – | 0.0234 | – | 0.0364
S. aureus Newman [1], partner 16 µg/mL | – | 0.0048 | – | 0.0214 | – | 0.0111
S. pneumoniae D39V [2], partner 4 µg/mL | 0.899 | – | 0.87 | – | 0.564 | –
S. pneumoniae D39V [2], partner 8 µg/mL | 0.924 | – | 0.793 | – | 0.53 | –
S. pneumoniae D39V [2], partner 16 µg/mL | 0.756 | – | 0.716 | – | 0.443 | –

Conditions | Bliss interaction score
B. subtilis 168 | 0.0538
S. aureus DSM 20231 | -0.0116
S. aureus Newman [3] | -0.0301
S. pneumoniae D39V [4] | -0.0665

C/C(=C\C(=O)OCCCCCCCCC(=O)O)C[C@@H]1OC[C@H](C[C@@H]2O[C@H]2[C@@H](C)[C@H](C)O)[C@@H](O)[C@H]1O [Pseudomonic acid] + CN[C@@H]1[C@H](O[C@H]2[C@H](O[C@H]3[C@H](O)[C@@H](O)[C@H](N=C(N)N)[C@@H](O)[C@@H]3N=C(N)N)O[C@@H](C)[C@]2(O)C=O)O[C@@H](CO)[C@H](O)[C@H]1O [Streptomycin]
fitness
Conditions | first compound 0.03 µg/mL | first compound 0.0313 µg/mL | first compound 0.06 µg/mL | first compound 0.0625 µg/mL | first compound 0.12 µg/mL | first compound 0.125 µg/mL
S. aureus Newman [1], partner 2 µg/mL | – | 0.0148 | – | 0.0368 | – | 0.0312
S. aureus Newman [1], partner 4 µg/mL | – | 0.0183 | – | 0.0224 | – | 0.0173
S. aureus Newman [1], partner 8 µg/mL | – | 0.0145 | – | 0.0198 | – | 0.0269
S. pneumoniae D39V [2], partner 2 µg/mL | 0.897 | – | 0.719 | – | 0.52 | –
S. pneumoniae D39V [2], partner 4 µg/mL | 0.903 | – | 0.708 | – | 0.491 | –
S. pneumoniae D39V [2], partner 8 µg/mL | 0.699 | – | 0.565 | – | 0.384 | –

S. pneumoniae D39V [2], partner 16 µg/mL, one replicate
Conditions | fitness
first compound 0.03 µg/mL | 0.545
first compound 0.06 µg/mL | 0.439
first compound 0.12 µg/mL | 0.238

Conditions | Bliss interaction score
B. subtilis 168 | 0.0523
S. aureus DSM 20231 | -0.013
S. aureus Newman [3] | -0.0275
S. pneumoniae D39V [4] | -0.178
